The values that follow come from article PMC10831071, “Reaction hijacking inhibition of Plasmodium falciparum asparagine tRNA synthetase” (Nature Communications, 2024).

In one series the target is PfAsnRS (Plasmodium falciparum, UniProt O96198). Kind of series: biochemical. The note with it: for ATP consumption: PfAsnRS, normalised to 1 (Fig 3D).
Series [1] concerns P. falciparum Cam3.II-rev. The series can be described thus: Drug pulse (6 h) viability assay. As to conditions: for IC50: read-out: IC50 (Viability). In kind it is cell-based, Plasmodium falciparum. As for the experimental part:
Viability was assessed in the second cycle by flow cytometry, following labeling with 2 μM Syto-61 (Thermo Fisher Scientific)[48],[49]. Viability represents the parasitemia normalized to untreated and “kill” controls that were treated with 2 μM dihydroartemisinin (DHA; Sigma-Aldrich) for 48–72 h. For drug pulse assays, tightly synchronized Cam3.II-rev[50] parasites (1–1.5% parasitemia, 0.2% final hematocrit) were added to the plates and incubated for 6 h. Drugs were removed and the parasitemia assessed in the trophozoite stage of the next cycle.

The subject of series [2] is protein translation in P. falciparum trophozoites (Cam3.II-rev). Kind of series: Protein translation assay (OPP incorporation). In kind it is cell-based, Plasmodium falciparum. As to conditions: for Translation: individual experiments, 0 nM = 100; for IC50: read-out: IC50 (Translation). How it is done:
O-propargyl-puromycin (OPP) (Abcam) was added to the culture and incubated for a further 2 h. Parasites were washed three times in 1 × PBS (Gibco™) and fixed with 4% formaldehyde (Polysciences) and 0.02% glutaraldehyde (Sigma) in 1 × PBS for 20 min at room temperature (RT). Cells were washed two times with buffer A (3% human serum in 1 × PBS). Pellets were permeabilized in buffer A containing 0.05% Triton® X-100 and washed two times with buffer A. Fixed-permeabilized cells were subjected to copper-catalyzed azide–alkyne cycloaddition (CuAAC) at 37 °C for 1 h in the presence of 0.1 mM CuSO4, 0.5 mM THPTA, 5 mM sodium ascorbate, and 0.1 μM Alexa Fluor 488 azide in buffer A. Pellets were washed four times in buffer A and resuspended in buffer A containing 25 μg/ml propidium iodide (Invitrogen™). Cells were interrogated by flow cytometry (FACS Canto II; BD Biosciences, San Jose, CA) using FITC and Cy™5.5 channels.

The mark [3] stands for this setting: 78.1 nM, 6 h pulse, individual experiments, 0 nM = 100.
Setting [4] is: 156.3 nM, 6 h pulse, individual experiments, 0 nM = 100.
Setting [5] is: 312.5 nM, 6 h pulse, individual experiments, 0 nM = 100.
Where [6] appears, read: 625 nM, 6 h pulse, individual experiments, 0 nM = 100.
Where [7] appears, read: 1250 nM, 6 h pulse, individual experiments, 0 nM = 100.
[8] abbreviates: 2500 nM, 6 h pulse, individual experiments, 0 nM = 100.
[9] abbreviates: 5000 nM, 6 h pulse, individual experiments, 0 nM = 100.
The mark [10] stands for this setting: 10000 nM, 6 h pulse, individual experiments, 0 nM = 100.
The mark [11] stands for this setting: 20000 nM, 6 h pulse, individual experiments, 0 nM = 100.

Values joined by “and” are separate entries in the source; they are usually repeats but may differ in a detail not shown here. Identical values can stand only once. Like-named read-outs stand apart in the source and are kept apart here.

As usually defined, the IC50 is the concentration needed to halve the response being measured. Broadly, the viability is a read-out of living cells in per cent, often relative to untreated cells.

PfAsnRS, sequence (O96198 entry or part of it): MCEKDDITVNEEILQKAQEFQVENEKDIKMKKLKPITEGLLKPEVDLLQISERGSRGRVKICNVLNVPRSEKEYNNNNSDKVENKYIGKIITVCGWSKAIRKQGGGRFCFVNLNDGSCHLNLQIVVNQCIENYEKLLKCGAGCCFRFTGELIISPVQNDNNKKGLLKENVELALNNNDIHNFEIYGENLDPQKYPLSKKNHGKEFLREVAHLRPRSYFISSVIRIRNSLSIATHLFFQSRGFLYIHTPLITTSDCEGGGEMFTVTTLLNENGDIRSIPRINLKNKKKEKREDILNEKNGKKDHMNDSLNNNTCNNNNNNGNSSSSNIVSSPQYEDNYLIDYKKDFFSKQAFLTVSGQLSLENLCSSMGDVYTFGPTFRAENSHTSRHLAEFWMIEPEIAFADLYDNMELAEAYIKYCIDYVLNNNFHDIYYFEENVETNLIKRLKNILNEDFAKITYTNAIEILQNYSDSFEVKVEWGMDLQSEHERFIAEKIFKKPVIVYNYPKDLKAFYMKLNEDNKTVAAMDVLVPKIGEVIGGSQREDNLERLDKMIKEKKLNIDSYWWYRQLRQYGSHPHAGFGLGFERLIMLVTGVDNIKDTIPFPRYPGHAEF

`Nc1ncnc2c1ncn2[C@@H]1O[C@H](COS(N)(=O)=O)[C@@H](O)[C@H]1O` [AMS, adenosine 5’-O-sulfamate, reference compound]: the ATP consumption is 0.946 on PfAsnRS (0.03 μM AMS, 0.03 µM); 0.5414 and 0.637 on PfAsnRS (0.1 μM AMS, 0.1 µM); 0.3347 and 0.4652 on PfAsnRS (0.3 μM AMS, 0.3 µM); 0.189 and 0.2604 at PfAsnRS (1 μM AMS, 1 µM); 0.1468 and 0.18 on PfAsnRS (3 μM AMS, 3 µM); 0.0653 and 0.08191 on PfAsnRS (10 μM AMS, 10 µM). For the same compound, the ATP consumption at PfAsnRS (30 μM AMS, 30 µM) is 0.09691 and 0.0585. In addition, on PfAsnRS (IC50, ATP consumption, 0.05 μM PfAsnRS, E. coli tRNA present, 37 °C, 1 h (Fig. 3C, D)), it took 190 nM to reach half-maximal inhibition (IC50).
Turning to `C[C@@H]1C[C@@H]([C@H](O)CC2CC(=O)NC(=O)C2)C(=O)[C@@H](C)C1` [Cycloheximide], the Viability in series [1] (39.1 nM, 6 h pulse, individual experiments, 0 nM = 100) was 97.4339 and 92.233; in series [1] (setting [3]) it was 94.7793 and 98.0583; in series [1] (setting [4]), 102.013 and 98.7864; in series [1] (setting [5]), 97.9775 and 92.233; in series [1] (setting [6]) it was 92.6066 and 91.9903; in series [1] (setting [7]), 79.0045 and 78.3981. In addition, the Viability is 100.147 and 80.518 and 75 in series [1] (setting [8]); 78.8213 and 75.2427 in series [1] (setting [9]); 77.1877 and 75 in series [1] (setting [10]); 95.0102 and 69.6652 and 71.1165 in series [1] (setting [11]). Besides, in series [1] (Plasmodium falciparum, 6 h, 39.1 nM, 6 h pulse, individual experiments, 0 nM = 100), the viability at 0.0391 µM was 108%. The viability at 0.0781 µM in series [1] (Plasmodium falciparum, 6 h, 78.1 nM, 6 h pulse, individual experiments, 0 nM = 100) came to 95.9%. Besides, the viability at 0.1563 µM in series [1] (Plasmodium falciparum, 6 h, 156.3 nM, 6 h pulse, individual experiments, 0 nM = 100) came out at 109%. Besides, the viability at 0.3125 µM in series [1] (Plasmodium falciparum, 6 h, 312.5 nM, 6 h pulse, individual experiments, 0 nM = 100) is 104%. Further, the viability at 0.625 µM in series [1] (Plasmodium falciparum, 6 h, 625 nM, 6 h pulse, individual experiments, 0 nM = 100) was 102%. Besides, the viability at 1.25 µM in series [1] (Plasmodium falciparum, 6 h, 1250 nM, 6 h pulse, individual experiments, 0 nM = 100) came to 95%. In series [1] (Plasmodium falciparum, 6 h, 5000 nM, 6 h pulse, individual experiments, 0 nM = 100), the viability at 5 µM stood at 95.1%. Also, the viability at 10 µM in series [1] (Plasmodium falciparum, 6 h, 10000 nM, 6 h pulse, individual experiments, 0 nM = 100) turned out to be 88.3%. Also, the IC50 is above 1000 nM in series [1] (Plasmodium falciparum, 6 h) and 331 nM in series [2] (Plasmodium falciparum). Besides, the Translation is 91.0615 and 76.2984 and 81.7995 in series [2] (39.1 nM, 6 h exposure); 81.922 and 88.5493 and 60.1275 in series [2] (78.1 nM, 6 h exposure); 69.0756 and 65.574 and 56.5841 in series [2] (156.3 nM, 6 h exposure); 54.5569 and 51.3303 and 54.0173 in series [2] (312.5 nM, 6 h exposure); 34.3298 and 36.573 and 53.0328 in series [2] (625 nM, 6 h exposure); 29.8359 and 24.3187 and 24.0049 in series [2] (1250 nM, 6 h exposure). For the same compound, the Translation in series [2] (2500 nM, 6 h exposure) is 20.2838 and 21.5354 and 22.6499; in series [2] (5000 nM, 6 h exposure), 16.1089 and 19.5652 and 16.2965; in series [2] (10000 nM, 6 h exposure) it was 8.675 and 13.4553 and 5.495; in series [2] (20000 nM, 6 h exposure), 7.645 and 6.944 and 4.617.
Regarding `CC1(C)N=C(N)N=C(N)N1OCCCOc1cc(Cl)c(Cl)cc1Cl` [WR99210], the Viability in series [1] (setting [3]) is 90.9718 and 69.2733 and 98.7384; in series [1] (setting [4]), 76.1805 and 35.562 and 55.9172; in series [1] (setting [5]), 32.1885 and 5.756 and 17.0102; in series [1] (setting [6]), 6.692 and 4.516 and 3.401; in series [1] (setting [7]), 5.505 and 0.4167 and 0.2921; in series [1] (setting [8]) it was 3.52 and 0.4893 and 0.1273. Besides, the Viability in series [1] (setting [9]) is 3.786 and 0.4893 and 2.194; in series [1] (setting [10]), 2.477 and 1.7781 and 0.09123; in series [1] (setting [11]), 0 and 0.969 and 1.737; in series [1] (40000 nM, 6 h pulse, individual experiments, 0 nM = 100), 3.358 and 0 (2×). The IC50 is 0.9 nM in series [1] (6 h pulse, viability at trophozoite stage of next cycle) and above 1000 nM in series [2] (6 h exposure, OPP in last 2 h, Cam3.II-rev trophozoites). For the same compound, the Translation in series [2] (78.1 nM, 6 h exposure) is 90.9036 and 76.9712 and 89.4018; in series [2] (156.3 nM, 6 h exposure) it was 89.4578 and 82.2873 and 81.3601; in series [2] (312.5 nM, 6 h exposure) it was 91.0241 and 91.4005 and 91.4867; in series [2] (625 nM, 6 h exposure), 83.5542 and 90.7751 and 99.6277; in series [2] (1250 nM, 6 h exposure), 82.5301 and 79.1155 and 98.3867; in series [2] (2500 nM, 6 h exposure), 84.3976 and 81.0364 and 102.259. For the same compound, the Translation is 88.5542 and 92.6513 and 94.4155 in series [2] (5000 nM, 6 h exposure); 97.2892 and 85.5484 and 98.6845 in series [2] (10000 nM, 6 h exposure); 112.47 and 92.0706 and 98.0392 in series [2] (20000 nM, 6 h exposure); 103.313 and 81.0364 and 102.259 in series [2] (40000 nM, 6 h exposure).
